According to PMC4965013, “Open Source Drug Discovery with the Malaria Box Compound Collection for Neglected Diseases and Beyond” (PLoS Pathogens, 2016):
≈ marks a conversion by molar mass, not a printed value.

Tests used:
Staphylococcus aureus = test: S. aureus agar spot / MIC Baker; conditions: read-out: Minimum Inhibitory Concentrations (MIC) S. aureus
[1] = tested on: Acinetobacter baumannii ATCC 19606; test: A. baumannii agar spot / MIC Baker; conditions: ATCC19606, read-out: Minimum Inhibitory Concentrations (MIC) A. baumanii
A. ceylanicum L3 larvae = A. ceylanicum L3 larvae J. Keiser; assay type: cell-based, Ancylostoma ceylanicum; conditions: 200µM
T. muris L1 larvae = T. muris L1 larvae J. Keiser; assay type: cell-based, Trichuris muris; conditions: 100µM
[2] = tested on: Naegleria fowleri trophozoites; test: Naegleria fowleri CellTiter-Glo; assay type: cell-based; conditions: Naegleria fowleri
Excerpt: Columns CY-CZ: Kyle group (data presented first in this paper). Naegleria fowleri trophozoite growth inhibition. Methods: The CellTiter-Glo (CTG) 2.0 luminescent assay is a quantitative assay that assesses the presence of cellular ATP in lysed cells, displaying an output in Relative Light Units (RLU’s). This was previously standardised, for the growth and development of Naegleria fowleri trophozoites in-vitro to assess drug susceptibility on this parasite. […] These included two drug-like molecules MMV665807 (St. Jude’s Children’s Hospital) and MMV665979 (The Genomics Institute of the Novartis Research Foundation - GNF) and two Probe-like molecules, MMV006203 (GNF) & MMV006172 (GNF; GlaxoSmithKline - GSK). […] However, these Malaria Box compounds were all toxic to zebrafish and mammalian cells.

T. b. brucei Squib 427 = test: T. b. brucei growth Maes; assay type: cell-based, Trypanosoma brucei brucei; conditions: non-toxic, positive in all T. brucei screens
[3] = tested on: P. falciparum 3D7 trophozoites; test: Metabolomic fingerprint profiling LC-MS; assay type: cell-based, Plasmodium falciparum; parameters: UDP-D-glucose / ADP-D-glucose: unit not given here
P. falciparum = test: EC50 listed in S2 Table Metabolomics (used to set the concentration tested); assay type: cell-based; conditions: Plasmodium falciparum; EC50 used for Factor_XEC50 in metabolomics; read-out: EC50_nM
[4] = metabolite level change after treatment

Molecule: O=C(Nc1ccc(F)c(Cl)c1)Nc1ccc(Cl)c(Cl)c1 [MMV665953]
- MIC (Staphylococcus aureus): 1.25 to 5 µM (≈ 0.417 to 1.67 µg/mL)
- MIC [1]: 1.25 to 5 µM (≈ 0.417 to 1.67 µg/mL)

Molecule: c1ccc([C@H]2CN3CCSC3=N2)cc1 [Levamisole, reference compound]
- A. ceylanicum positive control effect (A. ceylanicum L3 larvae): caused death of all worms
- T. muris positive control effect (T. muris L1 larvae): caused death of all worms

Molecule: O=C(Nc1cccc(C(F)(F)F)c1)c1cc(Cl)ccc1O [MMV665807]
- EC50 [2]: 1090 nM
- MIC (Staphylococcus aureus): 1.25 to 5 µM (≈ 0.395 to 1.58 µg/mL)
- MIC [1]: 1.25 to 5 µM (≈ 0.395 to 1.58 µg/mL)

Molecule: CCN1CCN(Cc2ccc(NC(=O)c3cc4ccc5cccnc5c4[nH]3)cc2)CC1 [MMV020548]
- Selectivity Index T. brucei screens (T. b. brucei Squib 427): > 10
- Acetyllysine ([3]; S2 Table Metabolomics, metabolite Acetyllysine): -1.074
- N-acetyl-L-ornithine ([3]; S2 Table Metabolomics, metabolite N-acetyl-L-ornithine): -0.7002
- N-carbamoyl-L-aspartate ([3]; S2 Table Metabolomics, metabolite N-carbamoyl-L-aspartate): 0.01627
- NADPH ([3]; S2 Table Metabolomics, metabolite NADPH): -0.7588
- dAMP ([3]; S2 Table Metabolomics, metabolite dAMP): 0.7039
- dCMP ([3]; S2 Table Metabolomics, metabolite dCMP): 0.2246
- dTDP ([3]; S2 Table Metabolomics, metabolite dTDP): 0.1022
- dTMP ([3]; S2 Table Metabolomics, metabolite dTMP): 0.01221
- dTTP ([3]; S2 Table Metabolomics, metabolite dTTP): -0.4268
- dihydroorotate ([3]; S2 Table Metabolomics, metabolite dihydroorotate): 0.1148
- orotate ([3]; S2 Table Metabolomics, metabolite orotate): 0.2392
- DLH ([3]; S2 Table Metabolomics, peptide DLH): -1.531
- DLS/SDL/SID ([3]; S2 Table Metabolomics, peptide DLS/SDL/SID): -1.1
- PD ([3]; S2 Table Metabolomics, peptide PD): -1.147
- PEE ([3]; S2 Table Metabolomics, peptide PEE): -0.7652
- PVNF ([3]; S2 Table Metabolomics, peptide PVNF): -1.327
- 3-phosphoglycerate ([3]; metabolite 3-phosphoglycerate, S2 Table Metabolomics): -0.1406
- ADP-D-glucose ([3]; metabolite ADP-D-glucose, S2 Table Metabolomics): 0.03533
- ATP ([3]; metabolite ATP, S2 Table Metabolomics): -0.3247
- CDP ([3]; metabolite CDP, S2 Table Metabolomics, change in metabolite level after compound treatment): -0.06734
- D-sedoheptulose-1/7-phosphate ([3]; metabolite D-sedoheptulose-1/7-phosphate, S2 Table Metabolomics, change in metabolite level after compound treatment): -0.2201
- FAD ([3]; metabolite FAD, S2 Table Metabolomics): -0.1695
- GMP ([3]; metabolite GMP, S2 Table Metabolomics, change in metabolite level after compound treatment): 0.03987
- NAD+ ([3]; metabolite NAD+, S2 Table Metabolomics): -0.004207
- NADP+ ([3]; metabolite NADP+, S2 Table Metabolomics): -0.07599
- Octoluse Bisphosphate ([3]; metabolite Octoluse Bisphosphate, S2 Table Metabolomics, change in metabolite level after compound treatment): -0.5083
- Pyroglutamic acid ([3]; metabolite Pyroglutamic acid, S2 Table Metabolomics): 0.8773
- UDP-D-glucose ([3]; metabolite UDP-D-glucose, S2 Table Metabolomics): -0.04378
- UDP-D-glucuronate ([3]; metabolite UDP-D-glucuronate, S2 Table Metabolomics): -0.2395
- UDP-N-acetyl-glucosamine ([3]; metabolite UDP-N-acetyl-glucosamine, S2 Table Metabolomics): -0.0477
- UDP ([3]; metabolite UDP, S2 Table Metabolomics, change in metabolite level after compound treatment): -0.1277
- UMP ([3]; metabolite UMP, S2 Table Metabolomics, change in metabolite level after compound treatment): -0.04731
- UTP ([3]; metabolite UTP, S2 Table Metabolomics, change in metabolite level after compound treatment): -0.476
- a-ketoglutarate ([3]; metabolite a-ketoglutarate, S2 Table Metabolomics): 0.2925
- citrate/isocitrate ([3]; metabolite citrate/isocitrate, S2 Table Metabolomics, change in metabolite level after compound treatment): 0.7028
- cytidine ([3]; metabolite cytidine, S2 Table Metabolomics): 0.2393
- dATP ([3]; metabolite dATP, S2 Table Metabolomics): -0.2064
- dGMP/AMP ([3]; metabolite dGMP/AMP, S2 Table Metabolomics, change in metabolite level after compound treatment): 0.2962
- fumarate ([3]; metabolite fumarate, S2 Table Metabolomics, change in metabolite level after compound treatment): -0.1605
- glucose-1/6-phosphate ([3]; metabolite glucose-1/6-phosphate, S2 Table Metabolomics, change in metabolite level after compound treatment): -0.1021
- glycerate ([3]; metabolite glycerate, S2 Table Metabolomics, change in metabolite level after compound treatment): 0.2926
- guanine ([3]; metabolite guanine, S2 Table Metabolomics, change in metabolite level after compound treatment): 0.4901
- guanosine ([3]; metabolite guanosine, S2 Table Metabolomics, change in metabolite level after compound treatment): 0.1417
- hypoxanthine ([3]; metabolite hypoxanthine, S2 Table Metabolomics): 0.9061
- indole ([3]; metabolite indole, S2 Table Metabolomics): 0.3876
- inosine ([3]; metabolite inosine, S2 Table Metabolomics, change in metabolite level after compound treatment): 0.524
- 2_3-Diphosphoglyceric acid [3, 4]: -0.4996
- 4-phosphopantothenate [3, 4]: 0.07924
- 6-phospho-D-gluconate [3, 4]: -0.3745
- FMN [3, 4]: -0.06134
- IMP [3, 4]: 0.03526
- Pyrophosphate [3, 4]: -0.5624
- Sedoheptoluse bisphosphate [3, 4]: -0.2788
- cyclic-AMP [3, 4]: -0.1988
- glutathione disulfide [3, 4]: -0.4809
- lactate [3, 4]: 0.3196
- myo-inositol [3, 4]: -0.02428
- nicotinate ([3]; metabolite nicotinate, S2 Table Metabolomics): 0.6741
- ornithine ([3]; metabolite ornithine, S2 Table Metabolomics): -0.3153
- phosphoenolpyruvate ([3]; metabolite phosphoenolpyruvate, S2 Table Metabolomics): 0.09829
- pyruvate ([3]; metabolite pyruvate, S2 Table Metabolomics, change in metabolite level after compound treatment): 0.858
- ribose-phosphate ([3]; metabolite ribose-phosphate, S2 Table Metabolomics): -0.1246
- sarcosine/alanine ([3]; metabolite sarcosine/alanine, S2 Table Metabolomics, change in metabolite level after compound treatment): 0.05828
- sn-glycerol-3-phosphate ([3]; metabolite sn-glycerol-3-phosphate, S2 Table Metabolomics): -0.07501
- succinate/methylmalonic acid ([3]; metabolite succinate/methylmalonic acid, S2 Table Metabolomics, change in metabolite level after compound treatment): -0.07231
- uridine ([3]; metabolite uridine, S2 Table Metabolomics, change in metabolite level after compound treatment): 0.7812
- xanthosine ([3]; metabolite xanthosine, S2 Table Metabolomics, change in metabolite level after compound treatment): 0.03293
- EC50 (P. falciparum): 361 nM

Molecule: ivermectin [reference compound]
- A. ceylanicum positive control effect (A. ceylanicum L3 larvae): caused death of all worms
- T. muris positive control effect (T. muris L1 larvae): caused death of all worms
